Tests used:
[1] = DPPH free radical scavenging assay; conditions: compounds 100 μM; 517 nm (Table 2)
Description: The antioxidant property of different tryptamine derivatives were assessed and compared with the known antioxidants for potency. A range of different synthesized compounds and known anti oxidants, quercetin, ascorbic acid and gallic acid were analyzed by the FRAP assay. The FRAP assay is based on the measurement of the ability of the substance to reduce Fe^3+ to Fe^2+, greater the reducing ability greater the anti oxidant property. Antioxidants reduce Fe^3+-TPTZ in to blue colored Fe^2+-TPTZ complex, which results in an increase in the absorbance at 595 nm giving a FRAP value. […] Absorbance changes at different time intervals (FIG. 6) as well as at different concentrations (FIG. 7) at time 6 min in the presence of different compounds at 595 nm were measured. FRAP values at 6 min and 65 min were calculated from different tryptamine derivatives and some known antioxidant (Table 1). […] DPPH assay based on the DPPH free radicals scavenging power of the antioxidant molecules. Higher the scavenging power higher will be the antioxidant property. […] This assay was performed in presence of some known antioxidants such as ascorbic acid, quercetin and gallic acid.
2,2-Diphenyl-1-Picrylhydrazyl (DPPH) is a stable free radical that can accept hydrogen radical or an electron and become a stable diamagnetic molecule. The antioxidants can scavenge the DPPH by donating hydrogen as visualized by discoloration of the DPPH radical from purple to yellow (Pal, C; et al. Free Radic Biol Med, 49(2), 258-267; 2010, Ben Farhat, M.; et al. J. Agric. Food Chem. 57:10349-10356; 2009, Han, J; et al. Wei Sheng Yan Jiu 38:596-598; 2009). The assay system contained 1 mL of compounds under investigation dissolved (in methanol, some compound dissolved in water) at different concentrations in the range 10-100 μM solution and 4 ml of DPPH (0.15 mM) in methanol (80% in water v/v) and mixed well. It was allowed to stand for 30 min at 27° C. away from light. Ascorbic acid at the same concentration was taken as positive control. The absorbance of the solution was measured spectrophotometrically at 517 nm and from the decrease of absorption; the antioxidant activity of different tryptamine derivatives were determined.

[2] = Ferric reducing antioxidant power (FRAP) assay; conditions: compound at 10 μM relative to ferrous sulfate; for FRAP Value6 min (μM) M ± SD: 6 min; for FRAP Value65 min (μM) M ± SD: 65 min
Description: The antioxidant property of different tryptamine derivatives were assessed and compared with the known antioxidants for potency. […] The FRAP assay is based on the measurement of the ability of the substance to reduce Fe^3+ to Fe^2+, greater the reducing ability greater the anti oxidant property. Antioxidants reduce Fe^3+-TPTZ in to blue colored Fe^2+-TPTZ complex, which results in an increase in the absorbance at 595 nm giving a FRAP value. […] Absorbance changes at different time intervals (FIG. 6) as well as at different concentrations (FIG. 7) at time 6 min in the presence of different compounds at 595 nm were measured. FRAP values at 6 min and 65 min were calculated from different tryptamine derivatives and some known antioxidant (Table 1). […] DPPH assay based on the DPPH free radicals scavenging power of the antioxidant molecules. Higher the scavenging power higher will be the antioxidant property.
The assay was performed in a 96-well microplate. FRAP reagent was prepared by mixing of 10 ml acetate buffer (200 mM, pH-3.6), 1 ml of 2,4,6-tris(2-pyridyl)-s-triazine (TPTZ) solution (10 mM in 40 mM HCl) and 1 ml of ferric chloride solution (20 mM) in distilled water. For 1 h the mixture was kept in a water bath at 37° C. In 96-well microplates, 25 μL of the compounds under investigation dissolved (in methanol, some compound dissolved in water) at different concentrations in the range 1-25 μM was placed in triplicate and freshly prepared FRAP solution (175 μL) was added to this sample. A micro plate reader monitored the absorbance at 595 nm at different time intervals for up to 150 min. The absorbance of a mixture 175 μL TRAP sol and 25 μL methanol or water was taken which was subtracted from the absorbance of the samples at each time interval to calculate the absorbance change (ΔA). The FRAP value at time interval t (FRAP valuet) was calculated according to the formula: FRAP valuet(M)=(ΔatFl/ΔatFe^2+)×10^−5 Where ΔatFl is the absorbance change after the time interval t (6 and 65 min) relative to the tested flavonoid at the concentration of 10 μM and ΔatFe^2+ is the absorbance change at the same time interval relative to ferrous sulfate at the same concentration (Pal, C; et al. Free Radic Biol Med, 49(2), 258-267, 2010, Firuzi, O; et al. Biochim. Biophys. Acta 1721:174-184; 2005).

rats = experiment: Toxicity (death) after injection in rats; type: in vivo; conditions: injected; dose not given
CaCo2 colon cancer cells = conditions: literature (Shoeb et al. 2006); cited from earlier work
[3] = literature (Shahrzad et al. 2001); cited from earlier work

Row | Structure (SMILES) | Absorbance change (ΔA) at 30 min [1] | FRAP Value6 min (μM) M ± SD [2] [µM] | FRAP Value65 min (μM) M ± SD [2] [µM] | death of rats after injection (rats) | in vitro cytotoxic activity (CaCo2 colon cancer cells) | bioavailability in plasma [3]
1 | NCCc1c[nH]c2ccc(OC(=O)CCCC(=O)NCCc3c[nH]c4ccc(O)cc34)cc12 [Compound 6c, 3-(2-aminoethyl)-1H-indol-5-yl 5-(2-(5-hydroxy-1H-indol-3-yl)ethylamino)-5-oxopentanoate] | 0.19 ± 0.03 | 17.51 ± 0.38 | 29.78 ± 3.87 | all the rats were found dead within 20 mins | – | –
2 | O=C(/C=C/c1ccc(O)cc1)NCCc1c[nH]c2ccc(O)cc12 [Compound 2b, (E)-N-(2-(5-hydroxy-1H-indol-3-yl)ethyl)-3-(4-hydroxyphenyl)acrylamide] | 0.12 ± 0.01 | 3.09 ± 0.13 | 7.44 ± 1.47 | – | shows in vitro cytotoxic activity | –
3 | O=C(O)c1cc(O)c(O)c(O)c1 [Gallic acid, reference compound] | – | 33.90 ± 4.92 | 46.59 ± 8.41 | – | – | low
